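Following 48 hours of exposure in 96-well plates, responses at five concentrations were used to interpolate endpoints linearly. Here, GI50 denotes the concentration required for 50% inhibition of growth. Definition used: TGI = concentration required for complete inhibition of growth.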
Legend:
Experiment in all cases: DTP human tumour cell line panel, 48 h
SF-539 CNS = test system: SF-539 CNS
SK-MEL-2 melanoma = test system: SK-MEL-2 melanoma
SN12C renal = test system: SN12C renal
SK-MEL-28 melanoma = test system: SK-MEL-28 melanoma
NCI-H460 lung = test system: NCI-H460 lung
RXF 393 renal = test system: RXF 393 renal
UO-31 renal = test system: UO-31 renal
NCI-H23 lung = test system: NCI-H23 lung
SF-295 CNS = test system: SF-295 CNS
BT-549 breast = test system: BT-549 breast

| Compound | GI50 (SF-539 CNS) [µM] | TGI (SF-539 CNS) [µM] | GI50 (SK-MEL-2 melanoma) [µM] | TGI (SK-MEL-2 melanoma) [µM] | GI50 (SN12C renal) [µM] | TGI (SN12C renal) [µM] | GI50 (SK-MEL-28 melanoma) [µM] | TGI (SK-MEL-28 melanoma) [µM] | GI50 (NCI-H460 lung) [µM] | TGI (NCI-H460 lung) [µM] | GI50 (RXF 393 renal) [µM] | TGI (RXF 393 renal) [µM] | GI50 (UO-31 renal) [µM] | TGI (UO-31 renal) [µM] | GI50 (NCI-H23 lung) [µM] | TGI (NCI-H23 lung) [µM] | GI50 (SF-295 CNS) [µM] | TGI (SF-295 CNS) [µM] | GI50 (BT-549 breast) [µM] | TGI (BT-549 breast) [µM] |
| --- | --- | --- | --- | --- | --- | --- | --- | --- | --- | --- | --- | --- | --- | --- | --- | --- | --- | --- | --- | --- |
| O=C(/C=C/c1ccco1)c1cc(F)c(Cl)cc1Cl | 20 | 38.1 | 18.1 | 34.6 | 22.9 | 57.5 | 22.7 | 50.2 | 24.2 | 72.4 | 19.1 | 37.7 | 17.1 | 34 | 31 | > 100 | 24.3 | 65.9 |  |  |
| O=C(COc1ccc(/C=C2\COc3ccccc3C2=O)cc1)Nc1nccs1 | 15 | 29.4 | 10.8 | 24 | 5.69 | 25.7 | 13.2 | 26.1 | 18.6 | 64.6 |  |  | 11.9 | 25.5 | 11.2 | 25.4 | 3.1 | 12.8 |  |  |
| COC1=CC(c2ccc[nH]2)=N/C1=C\c1[nH]c(C)c(CC(=O)OCc2ccccc2)c1CCC(=O)OCc1ccccc1 | 0.458 | 1.74 | 0.281 | 0.758 |  |  |  |  | 0.399 | 13.1 | 0.423 | 2.19 | 0.21 | 0.577 | 0.546 | 4.45 | 0.305 | 1.3 | 0.37 | 2.68 |
| O=C1c2[nH]cc(CNC3CN4CCC3CC4)c2C(=O)c2c1c(O)c1ccccc1c2O (centres undefined) | 1.94 | 3.61 | 4.02 | 18.6 | 1.06 | 15.5 | 13 | 34.2 |  |  | 5.28 | 84.3 | 3.66 | 21.4 |  |  | 2.05 | 3.62 | 21.6 | 47.1 |
| OC(c1cc(-c2cccc(Cl)c2)nc2ccccc12)C1CCCCN1 (centres undefined) | 1.93 | 3.61 | 2.18 | 4.02 | 2.17 | 5.19 | 1.81 | 3.42 |  |  |  |  | 1.36 | 2.74 | 2.01 | 4.2 | 1.59 | 3.22 |  |  |
| CC[C@H]1CN2CCc3cc(OC)c(OC)cc3C2C[C@@H]1CC1NCCc2cc(OC)c(OC)cc21 (some centres undefined) |  |  |  | 0.0542 |  | 0.289 |  | 0.119 |  | 0.112 |  | 0.131 |  |  |  | 0.0916 |  |  |  | 0.375 |
| Cc1ccc(S(=O)(=O)c2ccc(NC(=O)SCCC(=O)O)cc2)cc1 |  | > 100 |  | > 100 |  | > 100 |  | > 100 |  | > 100 |  | > 100 |  | > 100 |  | > 100 |  | > 100 |  |  |
| CC(=O)Nc1ccccc1-c1nc2ccccc2nc1C |  | > 100 |  | > 100 |  | > 100 |  | > 100 |  | > 100 |  |  |  | > 100 |  | > 100 |  | > 100 |  |  |
| CC1=C(O)c2cn(C)cc2C(=O)C1=O |  | > 100 |  | > 100 |  | > 100 |  | > 100 |  | > 100 |  | > 100 |  | > 100 |  | > 100 |  | > 100 |  |  |
| COC(=O)C(=O)C(C(=O)C(=O)Nc1cccc(C(C)=O)c1)c1nc2ccc([N+](=O)[O-])cc2[nH]c1=O (centres undefined) |  | > 100 |  | > 100 |  | > 100 |  | > 100 |  | > 100 |  | > 100 |  | > 100 |  | > 100 |  | > 100 |  |  |
| COC(=O)C1=Cc2cc(OC)c(OC)c(OC)c2[C@H](c2cc(OC)c(OC)c(OC)c2)C1C(=O)OC (some centres undefined) |  | > 100 |  |  |  | > 100 |  | > 100 |  | > 100 |  | > 100 |  | > 100 |  | > 100 |  | > 100 |  |  |
| COC1OC(CO)C(O)C(OC(C)=O)C1NC(=O)N(CCCl)N=O (centres undefined) |  | > 100 |  | 8.75 |  | > 100 |  | > 100 |  | > 100 |  | > 100 |  |  |  | > 100 |  | > 100 |  |  |
| CCOC(=O)C1SC(=Nc2cccc(Cl)c2C)N=C1C (centres undefined) |  | 74 |  | 37 |  | 35.6 |  | > 100 |  | > 100 |  | > 100 |  | 78.9 |  | > 10 |  | 39.7 |  |  |
| C=C=C(C(=O)OC)S(=O)c1ccccc1[N+](=O)[O-] (centres undefined) |  | > 100 |  | > 100 |  | > 100 |  |  |  | > 100 |  | > 100 |  | > 100 |  | > 100 |  | > 100 |  |  |
| C=C(C)C1CC/C(C)=C/CCC2(C)OC2CC/C(CO)=C\C1O (centres undefined) |  | > 100 |  | > 100 |  | > 100 |  | > 100 |  | > 100 |  | > 100 |  | > 100 |  | > 100 |  | > 100 |  |  |
| COc1ccc(OC(C)=O)c2c1CCC=CC2=O |  | 30.9 |  | 33.7 |  | 31 |  | 28.6 |  | 34.7 |  | 21.6 |  | 30.9 |  | 32.8 |  | 35.4 |  |  |
| COc1cc(/C=C2\C[C@H]3[C@@H]4CC=C5C[C@@H](O)CC[C@]5(C)[C@H]4CC[C@]3(C)[C@H]2O)ccc1OCCN1CCCC1 | 8.28 | 17.6 | 16.4 | > 50 | 8.48 | 17.9 |  |  | 13.5 | 36.2 | 9.81 | 23.9 | 10.3 | 22.4 | 11.5 | 26 | 13.6 | 37 |  |  |
| O=C1/C(=N\O)c2ccccc2S1(=O)=O |  | > 100 |  | > 100 |  | > 100 |  |  |  | > 100 |  | > 100 |  | > 100 |  |  |  | > 100 |  |  |
| CCN(CC)CC(C)(C)C(=O)/C=C/c1cccc(/C=C/C(=O)C(C)(C)CN(CC)CC)c1 |  | 2.27 |  |  |  | 1.04 |  | 2.75 |  | 2.31 |  | 1.49 |  | 3.17 |  | 2.7 |  | 3.28 |  |  |
